pIC50: −log10 of the molar value. A value given as a limit tells only on which side of the number the result lay.

The experiment deals with T1, MCH R1 (melanine-concentrating hormone receptor-1) (Homo sapiens, UniProt Q99705).
T1 construct: purchased Euroscreen, Gosselies, Belgium
T1 sequence (Q99705 whole entry, species assumed): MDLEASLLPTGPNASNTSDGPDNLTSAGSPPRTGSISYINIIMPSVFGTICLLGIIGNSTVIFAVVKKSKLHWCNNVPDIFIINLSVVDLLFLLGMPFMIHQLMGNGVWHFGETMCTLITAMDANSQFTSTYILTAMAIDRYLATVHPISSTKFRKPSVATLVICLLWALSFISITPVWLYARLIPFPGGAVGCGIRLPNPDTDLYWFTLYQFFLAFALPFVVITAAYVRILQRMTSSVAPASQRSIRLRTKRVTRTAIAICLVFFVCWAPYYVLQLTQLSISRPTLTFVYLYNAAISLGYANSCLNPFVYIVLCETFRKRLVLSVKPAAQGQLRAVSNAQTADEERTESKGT
The experiment is described as follows: Inhibitory effects on MCH R1 binding (Eu-MCH time-resolved fluorescence binding assay). As to conditions: concentration inhibiting the binding of MCH (Eu-MCH, 2 nM) to MCH R1 by 50% in vitro; TRF readout; test range 1 nM to 10 μM; read-out: IC50. As to the method:
First, MCH R1 (melanine-concentrating hormone receptor-1; Euroscreen, Gosselies, Belgium), 1 μM Europium-labeled melanine-concentrating hormone (Eu-MCH, PerkinElmer, Turku, Finland) and 1 mM melanine-concentrating hormone (MCH, #070-47, Phoenix, Belmont Calif., USA) were kept at 4° C. for ready use. 1 μM Eu-MCH and 1 mM MCH were diluted with an experimental solution (25 mM HEPES pH 7.4, 5 mM MgCl2, 1 mM CaCl2 and 0.5% (w/w) BSA) to 8 nM (final reaction concentration: 2 nM) and 2 μM (final reaction concentration: 0.5 μM), respectively. The compounds prepared in the Examples (“Test compounds”) were dissolved in the experimental solution in concentration of 4 nM to 40 μM (final reaction concentration: 1 nM to 10 μM). MCH R1 (200 assays/vial) was homogeneously dispersed in the experimental solution.
Then, 100 μl/well of the following reaction mixture was added to the wells of a microplate (Multiwell 96 well filter plates PN5020, Pall Co., Ann Arbor, Mich., USA) equipped with a filter paper, with an 8-channel pipette (multi 8-channel, Eppendorf, Hamburg, Germany). Specifically, to the wells of a non-specific binding control group, 25 μl of Eu-MCH, 50 μl of MCH R1 and 25 μl of MCH were added. Further, 25 μl of the experimental solution supplemented with 10% (w/w) of DMSO, 25 μl of Eu-MCH and 50 μl of MCH R1 were added to the wells of a total binding control group, while 25 μl of the test compounds, 25 μl Eu-MCH and 50 μl of MCH R1 were added to the wells of an experimental group. Subsequently, the microplate was shaken gently for 15 seconds and kept at room temperature for 90 minutes to allow the reaction to take place. Then, the plate was washed with a microplate washer (EMBLA, Molecular Devices) by washing three times with 300 μl of a washing solution (25 mM HEPES pH 7.4, 5 mM MgCl2, 1 mM CaCl2) to remove the residual unreacted Eu-MCH. Moisture was removed from the bottom of the wells and 150 μl of dissociation solution (DELFIA Enhancement solution, PerkinElmer, Turku, Finland) was added to each well, followed by keeping the plate at room temperature for 2 to 4 hours. Subsequently, time-resolved fluorescence (TRF) values were measured with a multilabel counter (Victor2, PerkinElmer, Turku, Finland) (emission wave length: 615 nm, excitation wave length: 340 nm). The inhibition rate based on the time-resolved fluorescence data was calculated using the following Equation (I). Inhibition rate of time-resolved fluorescence (%)=[(Average TRF value of the total binding group−Time-resolved fluorescence value of the test compound)/(Average TRF value of the total binding group−Average TRF value of the non-specific binding group)]×100 (I)
`CC(=O)Nc1cccc(C2CCN(CCCn3c(-c4ccccc4)nc4cc(Br)c(C)nc43)CC2)c1` [Example 68, 6-bromo-5-methyl-2-phenyl-3-{3-[4-(3-acetylaminophenyl)piperidin-1-yl]propyl}-3H-imidazo[4,5-b]pyridine]: the pIC50 is 6.96.

With `CCCCc1nc2c(C)cc(C)nc2n1CCCN1CCC(c2cccc(NC(C)=O)c2)CC1` [Example 95, 2-butyl-5,7-dimethyl-3-{3-[4-(3-acetylaminophenyl)piperidin-1-yl]propyl}-3H-imidazo[4,5-b]pyridine], the negative-log IC50 (pIC50) was 7.05.

With `CC(=O)Nc1cccc(C2CCN(CCCCCn3c(-c4ccc(Cl)cc4)nc4ccccc43)CC2)c1` [Example 8, 2-(4-chlorophenyl)-1-{5-[4-(3-acetylaminophenyl)piperidin-1-yl]pentyl}-1H-benzimidazole], the negative-log IC50 (pIC50) is 7.49.

As for `CC(=O)Nc1cccc(C2CCN(CCCn3c(C)nc4cc(Br)c(C)nc43)CC2)c1` [Example 92, 6-bromo-2,5-dimethyl-3-{3-[4-(3-acetylaminophenyl)piperidin-1-yl]propyl}-3H-imidazo[4,5-b]pyridine], the pIC50 was 6.73.

For `CC(=O)Nc1cccc(C2CCN(CCCn3c(-c4cc(F)c(F)c(F)c4F)nc4ccccc43)CC2)c1` [Example 44, 2-(2,3,4,5-tetrafluorophenyl)-1-{3-[4-(3-acetylaminophenyl)piperidin-1-yl]propyl}-1H-benzimidazole], the pIC50 is 7.11.

Take `COc1ccc2nc(-c3ccccc3)n(CCCN3CCC(c4cccc(NC(C)=O)c4)CC3)c2c1` [Example 27, 2-phenyl-1-{3-[4-(3-acetylaminophenyl)piperidin-1-yl]propyl}-6-methoxy-1H-benzimidazole]: the pIC50 was 7.96.

On to `CC(=O)Nc1cccc(C2CCN(CCCn3c(-c4ccccn4)nc4ccccc43)CC2)c1` [Example 104, 2-(pyridin-2-yl)-1-{3-[4-(3-acetamidophenyl)piperidin-1-yl]propyl}-1H-benzimidazole], for which the pIC50 was 7.48.

For the compound `CC(=O)Nc1cccc(C2CCN(CCCn3c(-c4ccc(F)cc4Cl)nc4cc(C)c(C)cc43)CC2)c1` [Example 80, 2-(2-chloro-4-fluorophenyl)-1-{3-[4-(3-acetylaminophenyl)piperidin-1-yl]propyl}-5,6-dimethyl-1H-benzimidazole], the pIC50 was 7.10.

With `CC(=O)Nc1cccc(C2CCN(CCCn3c(-c4cscn4)nc4ccccc43)CC2)c1` [Example 122, 2-(thiazol-4-yl)-1-{3-[4-(3-acetamidophenyl)piperidin-1-yl]propyl}-1H-benzimidazole], the pIC50 was 6.51.

As for `CC(=O)Nc1cccc(C2CCN(CCCn3c(C)nc4cc(C)c(C)cc43)CC2)c1` [Example 89, 2-methyl-1-{3-[4-(3-acetylaminophenyl)piperidin-1-yl]propyl}-5,6-dimethyl-1H-benzimidazole], the pIC50 was 7.22.

Consider `CC(=O)Nc1cccc(C2CCN(CCCn3c(-c4ocnc4C)nc4ccccc43)CC2)c1` [Example 123, 2-(4-methyloxazol-5-yl)-1-{3-[4-(3-acetamidophenyl)piperidin-1-yl]propyl}-1H-benzimidazole], for which the pIC50 was 8.52.

For the compound `CC(=O)Nc1cccc(C2CCN(CCCn3c(-c4ccc(F)cc4)nc4cc(Cl)ccc43)CC2)c1` [Example 84, 2-(4-fluorophenyl)-1-{3-[4-(3-acetylaminophenyl)piperidin-1-yl]propyl}-5-chloro-1H-benzimidazole], the pIC50 was 7.30.

For the compound `O=C(Nc1cccc(C2CCN(CCCn3c(-c4ccc(Cl)cc4)nc4ccccc43)CC2)c1)c1ccccc1` [Example 65, 2-(4-chlorophenyl)-1-{3-[4-(3-benzoylaminophenyl)piperidin-1-yl]propyl}-1H-benzimidazole], the pIC50 is 7.72.

In the case of `CC(=O)Nc1cccc(C2CCN(CCn3c(-c4ccccc4)nc4ccccc43)CC2)c1` [Example 1, 2-phenyl-1-{2-[4-(3-acetylaminophenyl)piperidin-1-yl]ethyl}-1H-benzimidazole], the pIC50 was below 5.00.

In the case of `COc1ccc2nc(-c3ccc(Cl)cc3)n(CCCN3CCC(c4cccc(NC(C)=O)c4)CC3)c2c1` [Example 28, 2-(4-chlorophenyl)-1-{3-[4-(3-acetylaminophenyl)piperidin-1-yl]propyl}-6-methoxy-1H-benzimidazole], the pIC50 is 7.26.

Take `CCc1ccc(-c2nc3ccccc3n2CCCN2CCC(c3cccc(NC(C)=O)c3)CC2)cc1` [Example 77, 2-(4-ethylphenyl)-1-{3-[4-(3-acetylaminophenyl)piperidin-1-yl]propyl}-1H-benzimidazole]: the pIC50 is 7.22.

Take `CC(=O)Nc1cccc(C2CCN(CCCn3c(-c4ccc(C(C)C)cc4)nc4ccccc43)CC2)c1` [Example 20, 2-(4-isopropylphenyl)-1-{3-[4-(3-acetylaminophenyl)piperidin-1-yl]propyl}-1H-benzimidazole]: the pIC50 was 7.72.

Consider `O=C(Nc1cccc(C2CCN(CCCn3c(-c4ccc(Cl)cc4)nc4ccccc43)CC2)c1)c1cccc(Cl)c1` [Example 66, 2-(4-chlorophenyl)-1-{3-[4-(3-(3-chlorobenzoylamino)phenyl)piperidin-1-yl]propyl}-1H-benzimidazole], for which the pIC50 is 6.67.

Take `CC(=O)Nc1cccc(C2CCN(CCCn3c(-c4ccc(Cl)cc4)nc4ccc(C(N)=O)cc43)CC2)c1` [Example 61, 2-(4-chlorophenyl)-1-{3-[4-(3-acetylaminophenyl)piperidin-1-yl]propyl}-6-carbamoyl-1H-benzimidazole]: the pIC50 was 6.70.

As to `CC(=O)Nc1cccc(C2CCN(CCCn3c(-c4ccc(Br)o4)nc4ccccc43)CC2)c1` [Example 108, 2-(5-bromofuran-2-yl)-1-{3-[4-(3-acetylaminophenyl)piperidin-1-yl]propyl}-1H-benzimidazole], the pIC50 was 8.52.

Take `CC(=O)Nc1cccc(C2CCN(CCCn3c(-c4ccccc4)nc4ccc(F)cc43)CC2)c1` [Example 26, 2-phenyl-1-{3-[4-(3-acetylaminophenyl)piperidin-1-yl]propyl}-6-fluoro-1H-benzimidazole]: the pIC50 was 8.15.

Consider `CC(=O)Nc1cccc(C2CCN(CCCn3c(CCc4cccnc4)nc4ccccc43)CC2)c1` [Example 127, 2-[2-(pyridin-3-yl)ethyl]-1-{3-[4-(3-acetamidophenyl)piperidin-1-yl]propyl}-1H-benzimidazole], for which the pIC50 was 9.00.

`CC(=O)Nc1cccc(C2CCN(CCCn3c(-c4ccccc4)nc4ccccc43)CC2)c1` [Example 3, 2-phenyl-1-{3-[4-(3-acetylaminophenyl)piperidin-1-yl]propyl}-1H-benzimidazole]: the pIC50 is 8.70.

As to `CC(=O)Nc1cccc(C2CCN(CCCn3c(-c4cccn4C)nc4ccccc43)CC2)c1` [Example 111, 2-(1-methylpyrrol-2-yl)-1-{3-[4-(3-acetylaminophenyl)piperidin-1-yl]propyl}-1H-benzimidazole], the negative-log IC50 (pIC50) is 8.05.

Consider `CC(=O)Nc1cccc(C2CCN(CCCn3c(-c4ccc(Br)cc4)nc4ccccc43)CC2)c1` [Example 11, 2-(4-bromophenyl)-1-{3-[4-(3-acetylaminophenyl)piperidin-1-yl]propyl}-1H-benzimidazole], for which the negative-log IC50 (pIC50) is 8.30.

The record behind these values is US8198307B2, “Imidazole derivatives having aryl piperidine substituent, method for preparation thereof and pharmaceutical compositions containing same” (Korea Research Institute of Chemical Technology, priority 2007, dated 2012).
